From EP2918282A1, “Pharmaceutical composition for the treatment of virus diseases, such as flu” (OOO "CytoNIR", priority 2014, dated 2015)

System: Grippevirus A/Vladivostok/2/09 (H1N1)
Assay: Survival of mice infected with a lethal dose of influenza virus, peroral treatment for 5 days
Format: in vivo, Mäuse
Conditions: for To-des-fälle / Überleben-de Mäuse / MLD, Tage (mittlere Lebensdauer innerhalb der Beobachtungsfrist) / Sterblichkeit % / MLD-Erhöhung, Tage / Schutzkennzahl, %: Tamiflu 30 mg/kg; for MLD-Erhöhung, Tage / Schutzkennzahl, %: versus Placebo
Excerpt: Die Wirksamkeit des Mittels wurde an einem Modell der Überlebensfähigkeit von angesteckten Versuchstieren geprüft. Die Versuchstiere wurden mit einer tödlichen Dosis des Grippevirus A/Vladivostok/2/09 (H1N1) angesteckt. Während der Forschung wurde das erfindungsgemäße Mittel 5 Tage lang peroral verabreicht.
Als Versuchstiere wurden weiße männliche Auszucht-Mäuse mit einem Körpergewicht von 16 - 18 g aus der Aufzuchtstation Rappolovo der Russischen Akademie der medizinischen Wissenschaften verwendet. Vor der Prüfung wurden die Versuchstiere einer Quarantäne in einem Vivarium im Laufe einer Woche unterzogen. Die Versuchstiere wurden unter genormten Klima-Bedingungen mit ausgewogener Fütterung gehalten. Jede Gruppe enthielt je 30 Versuchstiere.
Um eine versuchsmäßige Grippe-Infektion zu simulieren, wurde ein bestimmter Virusstamm eingesetzt. Die Versuchstiere wurden mit dem A/Vladivostok/2/09 (H1N1)-Virus in Mengen von 1 und 10 DL50 intranasal angesteckt.
Die Behandlung der angesteckten Mäuse wurde 24 Stunden nach der Ansteckung begonnen. Die Präparate wurden intragastrisch mittels einer Sonde verabreicht. Bei diesen Präparaten handelte es sich um eine Lösung in einer physiologischen Kochsalzlösung. Die Dosis des Arzneimittels wurde pro ein kg des Körpergewichts des Tieres berechnet. Die Behandlung wurde im Laufe von 5 Tagen vorgenommen. Die Wirksamkeit des Mittels wurde anhand der Überlebensraten der Tiere am 21. Tag nach der Ansteckung beurteilt.
Die erste Gruppe der Versuchstiere erhielt eine Lösung von Glutamyltryptophan und Natriumsalz der Glycyrrhizinsäure (nachfolgend GTGS); die zweite Gruppe der Tiere erhielt ein Präparat Tamiflu (Handelsnahme des Präparats Oseltamyvir) in der Dosis von 30 mg/kg; die dritte Gruppe der Tiere erhielt eine physiologische Kochsalzlösung (Placebo).

[1] = Virus-Dosis 1 (DL50), 15 animals per group, peroral day 1 to 5 after infection
[2] = Virus-Dosis 1 (DL50), peroral day 1 to 5 after infection
[3] = Virus-Dosis 10 (DL50), 15 animals per group, peroral day 1 to 5 after infection
[4] = Virus-Dosis 10 (DL50), peroral day 1 to 5 after infection
[5] = Virus-Dosis Gesamtdosis (both virus doses pooled), 30 animals, peroral day 1 to 5 after infection
[6] = Virus-Dosis Gesamtdosis (both virus doses pooled), peroral day 1 to 5 after infection
[7] = Virus-Dosis Gesamtdosis (both virus doses pooled)

SMILES: CCOC(=O)C1=C[C@@H](OC(CC)CC)[C@H](NC(C)=O)[C@@H](N)C1 [Tamiflu, Oseltamyvir]
- To-des-fälle [1]: 6
- Überleben-de Mäuse [1]: 9
- MLD, Tage (mittlere Lebensdauer innerhalb der Beobachtungsfrist) [2]: 11,7 Tage
- Sterblichkeit % [2]: 40,0%
- MLD-Erhöhung, Tage [2]: 1,1 Tage
- Schutzkennzahl, % [2]: 25,0%
- To-des-fälle [3]: 12
- Überleben-de Mäuse [3]: 3
- MLD, Tage (mittlere Lebensdauer innerhalb der Beobachtungsfrist) [4]: 9,0 Tage
- Sterblichkeit % [4]: 80,0%
- MLD-Erhöhung, Tage [4]: 1,9 Tage
- Schutzkennzahl, % [4]: 14,3%
- To-des-fälle [5]: 18
- Überleben-de Mäuse [5]: 12
- MLD, Tage (mittlere Lebensdauer innerhalb der Beobachtungsfrist) [6]: 10,4 Tage
- Sterblichkeit % [6]: 60,0%
- MLD-Erhöhung, Tage [7]: 1,5 Tage
- Schutzkennzahl, % [7]: 18,2%
- Todesfälle (virus dose 10 DL50, 30 mg/kg): 80%
